Measured values from patent US9187458B2, “Cyanoquinoline derivatives” (Tianjin Hemay Bio-Tech Co., LTD., priority 2010, dated 2015).
Where a name gives a salt, the structure may show the parent alone.

Key:
NCI-H460 cells = assay: NCI-H460 Cell Growth Inhibition Test (MTT Assay); format: cell-based; conditions: Homo sapiens, 72 h incubation
Procedure: NCI-H460 Cell Growth Inhibition Test (MTT Assay)
1. Cell strains: NCI-H460 (human large cell lung cancer cell strains);
(§1) 1. A plate (10 cm) of cells in logarithmic growth phase normally cultured was collected;
(§2) 2. The culture solution was sucked out. The plate was washed with 5 ml of PBS 1-2 times;
3. PBS was sucked out. 2 ml of 0.25% pancreatin was added to infiltrate the cells for 1 min;
4. The pancreatin was sucked out. The culture plate was placed in an incubator. Digestion was carried out for about 2 min at 37° C.;
(§3) 5. 4 ml of complete culture solution was added to the culture plate to stop the digestion. The cells were carefully scoured with micropipette (1 ml) to give a uniform cell suspension. The suspension was implanted into a 96-well cell culture plate by 2500 cells/100 μl per well. The culture plate was incubated overnight under 5% CO2 at 37° C. In day 2, 100 μl of culture solution comprising a compound was added in each well, and further incubated for 72 h under 5% CO2 at 37° C.
(§4) 6. The culture solution was sucked out;
(§5) 7. 100 μl of serum-free culture solution containing 0.5 mg/ml MTT was added in each well, and incubated for 3 h;
(§6) 8. The culture solution was carefully sucked out;
9. 100 μl of DMSO was added in each well and vibrated to dissolve;
(§7) 10. OD values were determined at 490 nM.
(§8) 1. Calculation of Relative Inhibition Ratio The inhibition ratio of a compound on cell growth=(PC−n)/(PC−NC)×100%
(§9) IC50: Concentration of a compound where inhibition ratio was 50%. IC50 values were fitted with Origin7.5.

EGFR-TK = target: T1, EGFR-TK (Homo sapiens, UniProt P00533); assay: Inhibition Test on EGFR-TK (ELISA, PGT substrate); format: biochemical; conditions: 20 min at room temperature, read-out: Inhibition Activity (EC50) on EGFR-TK phosphorylation
T1 construct: EGFR-TK: intracellular epidermal growth factor receptor phosphorylase
Procedure: Inhibition Test on EGFR-TK
1. 2 mg/ml of PGT was diluted with PBS to 0.2 mg/ml. The resulting solution was added into elisa plate by 50 μl per well. The plate was placed in a refrigerator at 4° C. and coated overnight.
2. The coating solution was discarded to stop coating. The plate was washed three times with PBS, and then beaten to dryness.
3. The elisa plate was placed in a refrigerator at 4° C., drained out and stood for 2h.
4. The mother liquid of aqueous solution of each compound was diluted with double distilled water to four folds, i.e. a desirable concentration. Then, the compound was diluted and added in the corresponding elisa well by 25 μl/well.
5. […] of ATP solution was diluted with double distilled water to 50 folds and then sufficiently mixed. The resulting solution was separately added in each elisa well by 25 μl per well (except for the negative control).
6. EGFR kinase was diluted with 2×TKB to 800 folds. The solution was added in elisa well with 50 μl per well. Then, the enzyme reaction began. The elisa plate was immediately placed on a micro-oscillator and shaked to react for 20 min at the room temperature.
7. 2% of SDS was added in the elisa well to stop the reaction by adding 100 μl of SDS into each well. The solution was sufficiently mixed on the micro-oscillator to sufficiently mix for about 5 min.
8. The reaction solution was sucked out. The plate was washed four times with PBST. After the plate was beaten to dryness, 0.25 μg/ml of mice anti-phosphorylation tyrosine-HRP antibody which was diluted with blocking solution (3% solution of BSA in PBST) was added in the plate by 100 μl per well. The mixture was reacted for 30 min at the room temperature.
9. The antibody reaction solution was sucked out. The plate was washed four times with PBST. After the plate was beated to dryness, TMB peroxidase substrate was added to the plate by 100 μl/well. The mixture reacted in the dark for 15 min at the room temperature.
10. 100 μl of 2N H2SO4 was added in the plate to stop the chromogenic reaction. After the bubbles were cleansed, OD values were determined in ELIASA at 450 nm.
11. Formula for calculating inhibition percentage: […]

A431 cells = assay: A431 Cell Growth Inhibition Test (MTT Assay); format: cell-based, human; conditions: Homo sapiens, A-431, 68 h, compound 1 μM, 68 h incubation, read-out: Growth Inhibition Ratio (%)
Procedure: A431 Cell Growth Inhibition Test (MTT Assay)
1. Cell strains: A431 (human epithelial […] cell strains);
Culture medium: 45% DMEM, 45% F12+10% FBS;
as §1, §2
3. PBS was sucked out, and 2 ml of 0.25% pancreatin was added to infiltrate the cells for 1 min;
4. The pancreatin was sucked out, and the culture plate was placed in an incubator. Digestion was carried out for about 15 min at 37° C.;
as §3, with “added in” for “added to”, “comprising the” for “comprising a”, “for 68” for “for 72”
as §4
7. 100 μl of serum-free culture solution containing 0.5 mg/ml MTT was added in each well, and incubated for 4 h;
as §6
9. 100 μl of DMSO was added into each well and vibrated to dissolve;
as §7, §8
IC50: concentration of a compound where inhibition ratio was 50%. IC50 values were fitted with Origin7.5.

BT-474 cells = assay: BT-474 Cell Growth Inhibition Test (SRB Assay); format: cell-based, human; conditions: Homo sapiens, BT-474, 70 h, compound 1 μM, 70 h incubation, read-out: Growth Inhibition Ratio (%)
Procedure: BT-474 Cell Growth Inhibition Test (SRB Assay)
1. Cell strains: BT-474 (human breast tumor cell strains);
2. SRB: available from Sigmaaldrich, goods number: S9012, lot number: 047K3751. SRB was reserved at the room temperature. 0.4% (w/v) of working solution was formulated with 1% of glacial acetic acid. The solution was reserved at the temperature of 4° C.; anti-tumor compounds; DMSO.
Culture medium (90% EMEM+10% FBS+0.1 mM NEAA, reserved at 4° C.);
1. A plate (10 cm) of cells in logarithmic growth phase normally cultured was collected. The culture solution was sucked out. The plate was washed with 5 mL of PBS 1-2 times;
2. PBS was sucked out, and […] of 0.25% pancreatin was added to infiltrate the cells for 30 s;
3. The pancreatin was sucked out. The culture plate was pleaced in an incubator. Digestion was carried out for about 5 min at 37° C.;
4. 3 mL of complete culture solution was added to the culture plate to stop the digestion. The cells were carefully scoured with micropipette (1 ml) to give a uniform single cell suspension;
5. Cell suspension was counted. The suspension was diluted to 1×10^5/ml. The resulting suspension was developed uniformly on a plate. The plate was incubated under 5% CO2 at 37° C. overnight. In day 2, 80 μL of complete culture medium was added in each well and then 20 μL of culture solution comprising a compound was added. The mixture was incubated for 70 h under 5% CO2 at 37° C.
(§10) 6. The culture solution was sucked out. 100 uL of TCA fixed cells which were diluted to 10% were added to each well. The plate was kept in a refrigerator for 1 h at 4° C.
(§11) 7. TCA stationary liquid was sucked out. Each well was washed with 150 μL of ddH2O five times;
(§12) 8. After the stationary liquid was cleansed, the plate was dried in the air at the room temperature;
(§13) 9. 60 μL of SRB staining solution was added in each well. The well was stained for 15 min at the room temperature;
(§14) 10. The SRB staining solution was sucked out. Each well was washed with 150 μL of 1% glacial acetic acid five times;
(§15) 11. After the SRB staining solution was cleansed, the plate was dried in the air at the room temperature;
12. 100 μL of 10 mM Tris was added in each well. The plate was vibrated to dissolve out SRB;
(§16) 13. OD values were determined at 570 nM.
as §8, §9

CCRF-CEM/T cells = assay: CCRF-CEM/T Cell Growth Inhibition Test (MTT Assay); format: cell-based; conditions: Homo sapiens, CCRF-CEM/T cells (resistant to paclitaxel), 72 h incubation
Procedure: CCRF-CEM/T Cell Growth Inhibition Test (MTT Assay)
Cell strains: CCRF-CEM/T (human acute lymphocytic cell leukemia cells);
triple lysate solution: 10% SDS, 5% isobutanol, 0.012M HCl.
1. Cells were cultured to exponential phase. The cells were suspension cells;
2. The cells were collected by centrifuge. The resulting cells were resuspended in a complete culture medium to a desired concentration. The cells suspension was implanted into a 96-well cell culture plate by 20000 cells per well. A compound was added in the wellsuch that the final volume of the system was 120 μl. The system was further incubated for 72 h under 5% CO2 at 37° C.
7. 30 μl of serum-free culture solution containing 2.5 mg/ml MTT was added in each well, and incubated for 3 h;
8. 150 μl of triple lysate solution was added in each well and placed to dissolve at the room temperature;
9. OD values were determined at 570 nM.
as §8, §9

Fadu cells = assay: Fadu Cell Growth Inhibition Test (MTT Assay); format: cell-based; conditions: Homo sapiens, 72 h incubation
Procedure: Fadu Cell Growth Inhibition Test (MTT Assay)
Cell strains: Fudu (human head and neck cancer cell strains);
Culture medium: 90% EMEM+10% FBS;
as §1, §2
(§17) 3. PBS was sucked out. 1.5 ml of 0.25% pancreatin was added to infiltrate the cells for 1 min;
4. The pancreatin was sucked out. The culture plate was placed in an incubator. Digestion was carried out for about 5 min at 37° C.;
as §3, with “4.5” for “4”, “6000” for “2500”
as §4, §5, §6
(§18) 9. 100 μl of DMSO was added in each welland vibrated to dissolve;
as §7, §8, §9

AsPC-1 cells = assay: AsPC-1 Cell Growth Inhibition Test (MTT Assay); format: cell-based; conditions: Homo sapiens, ASPC1, 72 h incubation
Procedure: AsPC-1 Cell Growth Inhibition Test (MTT Assay)
Cell strains: AsPC-1 (human pancreatic cancer cell strains);
as §1, §2, §17
4. The pancreatin was sucked out. The culture plate was placed in an incubator. Digestion was carried out for about 7.5 min at 37° C.;
as §3, with “4.5” for “4”, “8000” for “2500”
as §4, §5, §6, §18, §7, §8, §9

NCI-H1650 cells = assay: NCI-H1650 Cell Growth Inhibition Test (SRB Assay); format: cell-based; conditions: Homo sapiens, 72 h incubation
Procedure: NCI-H1650 Cell Growth Inhibition Test (SRB Assay)
1. Cell strains: NCI-H1650 (human non-small cell lung cancer cell strains);
2. SRB, 0.4% (w/v) working solution was formulated with 1% glacial acetic acid and reserved at 4° C.; antitumor compounds; DMSO
as §1
2. The culture solution was sucked out. The plate was washed with 5 mL of PBS 1-2 times;
3. 1.5 mL of 0.25% pancreatin was added to the plate to infiltrate the cells;
4. The pancreatin was sucked out. The culture plate was placed in an incubator. Digestion was carried out for about 3 min at 37° C.;
5. 4 mL of complete culture solution was added to the culture plate to stop the digestion. The cells were carefully scoured with micropipette (1 ml) to give a uniform single cell suspension. The suspensin was implanted into a 96-well cell culture plate by 6000 cells/100 μl per well. The culture plate was incubated overnight under 5% CO2 at 37° C. In day 2, 100 μl of culture solution comprising a compound was added in each well, and further incubated for 72 h under 5% CO2 at 37° C.;
as §10, §11, §12, §13, §14, §15
12. 100 μL of 10 mM Tris was added in each well, the plate was vibrated to dissolve out SRB;
as §16, §8, §9

T1 sequence (P00533 669-1210 limits assumed): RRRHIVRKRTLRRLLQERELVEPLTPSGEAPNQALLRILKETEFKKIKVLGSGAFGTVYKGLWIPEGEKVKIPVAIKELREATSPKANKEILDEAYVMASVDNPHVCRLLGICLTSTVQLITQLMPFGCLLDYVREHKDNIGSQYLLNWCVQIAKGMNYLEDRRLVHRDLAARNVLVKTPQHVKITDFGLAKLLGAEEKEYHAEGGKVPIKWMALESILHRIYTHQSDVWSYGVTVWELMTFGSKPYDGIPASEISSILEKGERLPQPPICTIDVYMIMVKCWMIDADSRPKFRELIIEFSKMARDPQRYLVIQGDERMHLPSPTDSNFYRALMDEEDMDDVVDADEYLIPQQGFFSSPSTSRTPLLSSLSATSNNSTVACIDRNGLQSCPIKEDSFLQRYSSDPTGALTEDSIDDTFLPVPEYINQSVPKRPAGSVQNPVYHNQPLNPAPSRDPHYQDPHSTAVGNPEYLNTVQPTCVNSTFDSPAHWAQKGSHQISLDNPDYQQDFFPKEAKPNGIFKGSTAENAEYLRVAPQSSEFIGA

IC50 (NCI-H460 cells) [µM] | EC50 (EGFR-TK) [µM] | IC50 (CCRF-CEM/T cells) [µM] | IC50 (AsPC-1 cells) [µM] | IC50 (NCI-H1650 cells) [µM] | SMILES | inhibition at 1 µM (A431 cells) [%] | inhibition at 1 µM (BT-474 cells) [%] | IC50 (Fadu cells) [µM]
4 | 0.025 |  |  |  | N#Cc1cnc2cc(OC3CCOC3)c(NC(=O)C=C3CCNCC3)cc2c1Nc1ccc(OCc2cccc(F)c2)c(Cl)c1 (stereo not shown) [Example 46, N-(4-(4-(3-FLUOROBENZYLOXY)-3-CHLOROPHENYLAMINO)-3-CYANO-7-(TETRAHYDROFURAN-3-YL-OXY)QUINOLIN-6-YL)-2-(PIPERIDIN-4-YLIDENE)ACETAMIDE] |  |  | 
 |  | 1.1 | 0.44 | 0.76 | CN(C)C/C=C/C(=O)Nc1cc2c(Nc3ccc(OCc4cccc(F)c4)c(Cl)c3)c(C#N)cnc2cc1O[C@H]1CCOC1 [Example 158, (S,E)-N-(4-(4-(3-FLUOROBENZYLOXY)-3-CHLOROPHENYLAMINO)-3-CYANO-7-(TETRAHYDROFURAN-3-YL-OXY)QUINOLIN-6-YL)-4-(DIMETHYLAMINO)-BUT-2-ENAMIDE] | 77 | 82 | 0.119
 |  |  |  | 0.819 | CN(C)C/C=C/C(=O)Nc1cc2c(Nc3ccc(OCc4ccccn4)c(Cl)c3)c(C#N)cnc2cc1OC1CCOC1 (stereo not shown) [Example 3, (E)-N-(4-(3-CHLORO-4-(PYRIDIN-2-YL-METHOXY)PHENYLAMINO)-3-CYANO-7-(TETRAHYDROFURAN-3-YL-OXY)QUINOLIN-6-YL)-4-(DIMETHYLAMINO)-BUT-2-ENAMIDE HYDROCHLORIDE] | 85 |  | 
